Laboratory results as given in patent US20240425523A1, “Compounds for the Degradation of EGFR Kinase” (Beigene Switzerland GMBH, priority 2023, published 2024).

Columns and labels:
[1] = target: T1, EGFR-L858R/C797S (H1975-clone #8 cells) (Homo sapiens, UniProt P00533, C797S/L858R); assay: Cell degradation of EGFR, HTRF assay, H1975-clone#8 (L858R/C797S) cells; assay type: cell-based; details: 16 h treatment; for DC50: EGFR degradation; for Dmax: maximum percentage of degradation
T1 construct: expressed in transfected cells; host or cells: H1975 (endogenous EGFR knocked out, clone #8)
Experimental: The EGFR over-expressed cells then underwent knockout, in which the EGFR targeting sgRNA was designed to only target the endogenous EGFR copies and preserve the exogenous EGFR copies. Followed by the knockout, the edited H1975 cells were seeded in 96 well plates at the concentration of […], cultured for about 2 weeks to allow single clones formation. The formed clones were screened by DNA sequencing and whole exon sequencing analysis for the desired edition.
(§1) H1975-#8 and BaF3-L858R cells are treated with compounds diluted in 0.1% DMSO cell culture medium on day 2, incubate for 16 h, 37° C., 5% CO2. the final concentration of compounds in all assay is start with 10 uM, 5-fold dilution, total 8 doses were included.
(§2) After 16 h treatment, for H1975-#8 cells, add 100 ul HTRF 1× lysis buffer to each well; for BaF3-L858R cells, add 20 μl 4× lysis buffer to each well; seal the plate and incubate 1 hour at room temperature on a plate shaker; Once the cells are lysed, 16 μL of cell lysate are transferred to a PE 384-well HTRF detection plate; 4 μL of pre-mixed HTRF antibodies are added to each well; Cover the plate with a plate sealer, spin 1000 rpm for 1 min, Incubate overnight at room temperature; Read on BMG PheraStar with HTRF protocol (337 nm-665 nm-620 nm).
(§3) High control=Cell group with added DMSO and without compound, indicating microplate readings without EGFR degradation;
(§4) Dmax is the maximum percentage of inhibition (degradation).
(§5) The IC50 (DC50) value of a compound can be obtained by fitting the following equation
(§6) Y=Bottom+(TOP−Bottom)/(1+((IC50/X)^hillslope))
(§7) Wherein, X and Y are known values, and IC50, Hillslope, Top and Bottom are the parameters obtained by fitting with software. […] The experimental data were fitted by calculating and analyzing with Dotmatics data analysis software.

[2] = target: T2, EGFR L858R (BaF3-L858R cells) (Homo sapiens, UniProt P00533, L858R); assay: Cell degradation of EGFR, HTRF assay, BaF3-L858R cells; assay type: cell-based; details: 16 h treatment; for DC50: EGFR degradation; for Dmax: maximum percentage of degradation
T2 construct: host or cells: BaF3
Experimental: BaF3-L858R (abbv. L858R) cell were purchased from Kangyuan Bochuang Biotechnology (Beijing) Co., Ltd.
as §1, §2, §3, §4, §5, §6, §7

T1 sequence (P00533 25-1210 C797S/L858R): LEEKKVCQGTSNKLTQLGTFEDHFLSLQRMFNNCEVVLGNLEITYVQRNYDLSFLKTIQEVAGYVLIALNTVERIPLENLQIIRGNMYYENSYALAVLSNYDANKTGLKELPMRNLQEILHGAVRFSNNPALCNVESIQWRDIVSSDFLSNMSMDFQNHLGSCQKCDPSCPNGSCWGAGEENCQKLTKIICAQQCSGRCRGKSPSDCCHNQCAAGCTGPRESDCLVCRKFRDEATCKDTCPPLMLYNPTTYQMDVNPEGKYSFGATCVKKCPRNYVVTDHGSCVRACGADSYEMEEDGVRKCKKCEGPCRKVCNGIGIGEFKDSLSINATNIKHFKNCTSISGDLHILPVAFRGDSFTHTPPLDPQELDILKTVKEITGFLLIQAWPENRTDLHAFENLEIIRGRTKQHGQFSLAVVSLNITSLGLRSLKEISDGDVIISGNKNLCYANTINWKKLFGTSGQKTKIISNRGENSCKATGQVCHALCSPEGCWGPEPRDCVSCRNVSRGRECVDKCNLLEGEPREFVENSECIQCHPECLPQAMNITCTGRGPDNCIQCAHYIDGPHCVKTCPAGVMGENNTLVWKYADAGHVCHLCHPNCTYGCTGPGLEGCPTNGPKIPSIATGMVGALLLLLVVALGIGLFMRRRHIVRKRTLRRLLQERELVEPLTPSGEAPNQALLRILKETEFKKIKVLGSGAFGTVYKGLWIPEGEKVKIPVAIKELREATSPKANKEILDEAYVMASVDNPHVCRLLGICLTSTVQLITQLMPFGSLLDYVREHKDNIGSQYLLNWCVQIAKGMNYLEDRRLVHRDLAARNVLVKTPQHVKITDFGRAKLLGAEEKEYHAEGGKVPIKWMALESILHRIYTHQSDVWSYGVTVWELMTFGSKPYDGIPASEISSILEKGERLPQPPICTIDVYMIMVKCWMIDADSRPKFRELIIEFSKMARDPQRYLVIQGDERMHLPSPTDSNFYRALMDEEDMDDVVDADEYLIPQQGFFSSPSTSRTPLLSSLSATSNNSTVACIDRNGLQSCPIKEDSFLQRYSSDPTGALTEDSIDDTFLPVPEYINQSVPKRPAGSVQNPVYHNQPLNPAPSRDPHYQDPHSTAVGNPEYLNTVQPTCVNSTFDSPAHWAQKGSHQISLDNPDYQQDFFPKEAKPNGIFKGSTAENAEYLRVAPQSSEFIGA
T2 sequence (P00533 25-1210 L858R): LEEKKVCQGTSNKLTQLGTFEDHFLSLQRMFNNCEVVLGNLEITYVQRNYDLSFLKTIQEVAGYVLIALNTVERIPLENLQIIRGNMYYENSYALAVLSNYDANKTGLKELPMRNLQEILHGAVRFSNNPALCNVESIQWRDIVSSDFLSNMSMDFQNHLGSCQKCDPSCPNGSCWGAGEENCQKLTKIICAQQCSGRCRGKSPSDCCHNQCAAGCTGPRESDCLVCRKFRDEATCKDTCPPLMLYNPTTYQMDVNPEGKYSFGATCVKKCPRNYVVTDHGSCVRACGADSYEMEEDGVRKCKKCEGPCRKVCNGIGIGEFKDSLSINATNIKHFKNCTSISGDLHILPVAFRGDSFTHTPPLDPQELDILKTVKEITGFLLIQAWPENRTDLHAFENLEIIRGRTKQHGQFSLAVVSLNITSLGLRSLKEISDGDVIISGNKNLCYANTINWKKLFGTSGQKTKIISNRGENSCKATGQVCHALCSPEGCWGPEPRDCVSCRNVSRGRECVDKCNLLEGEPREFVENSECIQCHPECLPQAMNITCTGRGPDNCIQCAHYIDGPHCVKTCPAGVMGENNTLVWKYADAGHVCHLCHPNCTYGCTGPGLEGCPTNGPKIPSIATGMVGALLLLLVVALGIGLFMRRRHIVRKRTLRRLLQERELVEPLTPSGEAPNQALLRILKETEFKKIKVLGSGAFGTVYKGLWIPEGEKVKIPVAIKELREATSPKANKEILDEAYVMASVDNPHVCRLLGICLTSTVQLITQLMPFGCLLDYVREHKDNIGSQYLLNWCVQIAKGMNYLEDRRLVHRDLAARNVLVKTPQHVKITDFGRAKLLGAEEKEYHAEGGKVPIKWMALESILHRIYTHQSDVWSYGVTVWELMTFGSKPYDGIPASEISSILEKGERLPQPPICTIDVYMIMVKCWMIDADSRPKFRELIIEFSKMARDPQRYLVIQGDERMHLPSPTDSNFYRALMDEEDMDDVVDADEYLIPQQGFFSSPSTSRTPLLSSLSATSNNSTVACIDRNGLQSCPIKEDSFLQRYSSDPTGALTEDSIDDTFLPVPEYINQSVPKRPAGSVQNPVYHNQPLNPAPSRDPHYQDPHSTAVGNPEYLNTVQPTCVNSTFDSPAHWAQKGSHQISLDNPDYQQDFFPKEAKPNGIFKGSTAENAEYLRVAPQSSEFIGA

Cc1cc2cc(n1)-c1cnn(C)c1OC[C@H]1CC[C@H](C1)CN1/C(=N/C2=O)Nc2ccc(N3CCN([C@@H]4CCN(c5cccc6c5C(C)(C)C(=O)N6C5CCC(=O)NC5=O)C[C@@H]4F)CC3)cc21 (stereo partly drawn) [Example 11, 3-(4-((3S,4R)-4-(4-((7^1R,7^3S,E)-1^1,2^6-dimethyl-3-oxo-5^2,5^3-dihydro-1^1H,5^1H-9-oxa-4-aza-5(2,1)-benzo[d]imidazola-2(2,4)-pyridina-1(4,5)-pyrazola-7(1,3)-cyclopentanacyclononaphane-5^6-yl)piperazin-1-yl)-3-fluoropiperidin-1-yl)-3,3-dimethyl-2-oxoindolin-1-yl)piperidine-2,6-dione]
DC50 [1]: 3.75 nM | Dmax [1]: 61.5% | DC50 [2]: 0.834 nM | Dmax [2]: 84.6%

Cc1cc2cc(n1)-c1cnn(C)c1OC[C@H]1CC[C@H](C1)CN1/C(=N/C2=O)Nc2ccc(N3CCN([C@@H]4CCN(c5ccc(C6CCC(=O)NC6=O)nc5C)C[C@@H]4F)CC3)cc21 (stereo partly drawn) [Example 12, 3-(5-((3S,4R)-4-(4-((7^1R,7^3S,E)-1^1,2^6-dimethyl-3-oxo-5^2,5^3-dihydro-1^1H,5^1H-9-oxa-4-aza-5(2,1)-benzo[d]imidazola-2(2,4)-pyridina-1(4,5)-pyrazola-7(1,3)-cyclopentanacyclononaphane-5^6-yl)piperazin-1-yl)-3-fluoropiperidin-1-yl)-6-methylpyridin-2-yl)piperidine-2,6-dione]
DC50 [1]: 0.774 nM | Dmax [1]: 88.4% | DC50 [2]: 0.493 nM | Dmax [2]: 90%

Cc1cc2cc(n1)-c1cnn(C)c1OC[C@H]1CC[C@H](C1)CN1/C(=N/C2=O)Nc2ccc(N3CCN([C@@H]4CCN(c5c(C)cc(C6CCC(=O)NC6=O)nc5C)C[C@@H]4F)CC3)cc21 (stereo partly drawn) [Example 13, 3-(5-((3S,4R)-4-(4-((7^1R,7^3S,E)-1^1,2^6-dimethyl-3-oxo-5^2,5^3-dihydro-1^1H,5^1H-9-oxa-4-aza-5(2,1)-benzo[d]imidazola-2(2,4)-pyridina-1(4,5)-pyrazola-7(1,3)-cyclopentanacyclononaphane-5^6-yl)piperazin-1-yl)-3-fluoropiperidin-1-yl)-4,6-dimethylpyridin-2-yl)piperidine-2,6-dione]
DC50 [1]: 1.4 nM | Dmax [1]: 65.5% | DC50 [2]: 0.307 nM | Dmax [2]: 91.5%

Cc1cc2cc(n1)-c1cnn(C)c1OC[C@H]1CC[C@H](C1)CN1/C(=N/C2=O)Nc2ccc(N3CCN([C@@H]4CCN(c5cc(F)c(C6CCC(=O)NC6=O)nc5C)C[C@@H]4F)CC3)cc21 (stereo partly drawn) [Example 14, 3-(5-((3S,4R)-4-(4-((7^1R,7^3S,E)-1^1,2^6-dimethyl-3-oxo-5^2,5^3-dihydro-1^1H,5^1H-9-oxa-4-aza-5(2,1)-benzo[d]imidazola-2(2,4)-pyridina-1(4,5)-pyrazola-7(1,3)-cyclopentanacyclononaphane-5^6-yl)piperazin-1-yl)-3-fluoropiperidin-1-yl)-3-fluoro-6-methylpyridin-2-yl)piperidine-2,6-dione]
DC50 [1]: 0.616 nM | Dmax [1]: 90.9% | DC50 [2]: 0.552 nM | Dmax [2]: 84%

Cc1cc2cc(n1)-c1cnn(C)c1OC[C@H]1CC[C@H](C1)CN1/C(=N/C2=O)Nc2ccc(N3CCN([C@H]4CCN(c5ccc(C6CCC(=O)NC6=O)nc5C)C[C@H]4F)CC3)cc21 (stereo partly drawn) [Example 15, 3-(5-((3R,4S)-4-(4-((7^1R,7^3S,E)-1^1,2^6-dimethyl-3-oxo-5^2,5^3-dihydro-1^1H,5^1H-9-oxa-4-aza-5(2,1)-benzo[d]imidazola-2(2,4)-pyridina-1(4,5)-pyrazola-7(1,3)-cyclopentanacyclononaphane-5^6-yl)piperazin-1-yl)-3-fluoropiperidin-1-yl)-6-methylpyridin-2-yl)piperidine-2,6-dione]
DC50 [1]: 11.1 nM | Dmax [1]: 85.2% | DC50 [2]: 7.6 nM | Dmax [2]: 94.2%

Cc1cc2cc(n1)-c1cnn(C)c1OC[C@H]1CC[C@H](C1)CN1/C(=N/C2=O)Nc2ccc(N3CCN([C@@H]4CCN(c5cnc(C6CCC(=O)NC6=O)cc5C)C[C@@H]4F)CC3)cc21 (stereo partly drawn) [Example 21, 3-(5-((3S,4R)-4-(4-((7^1R,7^3S,E)-1^1,2^6-dimethyl-3-oxo-5^2,5^3-dihydro-1^1H,5^1H-9-oxa-4-aza-5(2,1)-benzo[d]imidazola-2(2,4)-pyridina-1(4,5)-pyrazola-7(1,3)-cyclopentanacyclononaphane-5^6-yl)piperazin-1-yl)-3-fluoropiperidin-1-yl)-4-methylpyridin-2-yl)piperidine-2,6-dione]
DC50 [1]: 0.782 nM | Dmax [1]: 83.2% | DC50 [2]: 2.99 nM | Dmax [2]: 99%

Cc1cc2cc(n1)-c1cnn(C)c1OC[C@H]1CC[C@H](C1)CN1/C(=N/C2=O)Nc2ccc(N3CCN(CC4CCN(c5ccc(C6CCC(=O)NC6=O)nc5C)CC4)CC3)cc21 (some centres unmarked) [Example 23, 3-(5-(4-((4-((7^1R,7^3S,E)-1^1,2^6-dimethyl-3-oxo-5^2,5^3-dihydro-1^1H,5^1H-9-oxa-4-aza-5(2,1)-benzo[d]imidazola-2(2,4)-pyridina-1(4,5)-pyrazola-7(1,3)-cyclopentanacyclononaphane-5^6-yl)piperazin-1-yl)methyl)piperidin-1-yl)-6-methylpyridin-2-yl)piperidine-2,6-dione]
DC50 [1]: 0.608 nM | Dmax [1]: 55% | DC50 [2]: 12.8 nM | Dmax [2]: 86%

Cc1cc2cc(n1)-c1cnn(C)c1OC[C@H]1CC[C@H](C1)CN1/C(=N/C2=O)Nc2ccc(N3CCN([C@H]4CCN(c5cc(F)c(C6CCC(=O)NC6=O)nc5C)C[C@H]4F)CC3)cc21 (stereo partly drawn) [Example 27, 3-(5-((3R,4S)-4-(4-((7^1R,7^3S,E)-1^1,2^6-dimethyl-3-oxo-5^2,5^3-dihydro-1^1H,5^1H-9-oxa-4-aza-5(2,1)-benzo[d]imidazola-2(2,4)-pyridina-1(4,5)-pyrazola-7(1,3)-cyclopentanacyclononaphane-5^6-yl)piperazin-1-yl)-3-fluoropiperidin-1-yl)-3-fluoro-6-methylpyridin-2-yl)piperidine-2,6-dione]
DC50 [1]: 3.19 nM | Dmax [1]: 90.2% | DC50 [2]: 1.75 nM | Dmax [2]: 91.1%

Cc1cc2cc(n1)-c1cnn(CCO)c1OC[C@H]1CCC(C1)CN1/C(=N/C2=O)Nc2ccc(N3CCC(N4CCC(Nc5cc(F)c([C@H]6CCC(=O)NC6=O)c(F)c5)CC4)CC3)cc21 [Example 129, (R)-3-(2,6-difluoro-4-((1′-((7^1R,7^3S,E)-1^1-(2-hydroxyethyl)-2^6-methyl-3-oxo-5^2,5^3-dihydro-1^1H,5^1H-9-oxa-4-aza-5(2,1)-benzo[d]imidazola-2(2,4)-pyridina-1(4,5)-pyrazola-7(1,3)-cyclopentanacyclononaphane-5^6-yl)-[1,4′-bipiperidin]-4-yl)amino)phenyl)piperidine-2,6-dione]
DC50 [1]: 1.45 nM | Dmax [1]: 69.3% | DC50 [2]: 16.2 nM | Dmax [2]: 71.9%

COC[C@@H]1CN(c2ccc3c(c2)N2C[C@@H]4CC[C@H](COc5c(c(C)nn5C)-c5cc(cc(C)n5)C(=O)/N=C/2N3)C4)CCN1C1CCN(c2c(C)cc(C3CCC(=O)NC3=O)nc2C)CC1 (stereo partly drawn) [Example 147, 3-(5-(4-((S)-2-(methoxymethyl)-4-((7^1R,7^3S,E)-1^1,1^3,2^6-trimethyl-3-oxo-5^2,5^3-dihydro-1^1H,5^1H-9-oxa-4-aza-5(2,1)-benzo[d]imidazola-2(2,4)-pyridina-1(4,5)-pyrazola-7(1,3)-cyclopentanacyclononaphane-5^6-yl)piperazin-1-yl)piperidin-1-yl)-4,6-dimethylpyridin-2-yl)piperidine-2,6-dione]
DC50 [1]: 2.02 nM | Dmax [1]: 63.2% | DC50 [2]: 1.04 nM | Dmax [2]: 87.6%

COC[C@H]1CN(c2ccc3c(c2)N2C[C@@H]4CC[C@H](COc5c(c(C)nn5C)-c5cc(cc(C)n5)C(=O)/N=C/2N3)C4)CCN1C1CCN(c2c(C)cc(NC3CCC(=O)NC3=O)nc2C)CC1 (stereo partly drawn) [Example 159, 3-((5-(4-((R)-2-(methoxymethyl)-4-((7^1R,7^3S,E)-1^1,1^3,2^6-trimethyl-3-oxo-5^2,5^3-dihydro-1^1H,5^1H-9-oxa-4-aza-5(2,1)-benzo[d]imidazola-2(2,4)-pyridina-1(4,5)-pyrazola-7(1,3)-cyclopentanacyclononaphane-5^6-yl)piperazin-1-yl)piperidin-1-yl)-4,6-dimethylpyridin-2-yl)amino)piperidine-2,6-dione]
DC50 [1]: 3.75 nM | Dmax [1]: 81.3% | DC50 [2]: 9.56 nM | Dmax [2]: 77.5%
